The record followed here is EPA's ToxRefDB 2.

For orientation: LOAEL means the lowest dose or exposure tested at which an adverse effect was seen. Broadly, the NOAEL is the highest dose or exposure tested at which no adverse effect was seen.

The structures appear in SMILES notation. A value given as a limit tells only on which side of the number the result lay.

Series [1] deals with mouse. The note with it: Subchronic oral toxicity in rodents, cd1, Feed, dose end: 90 day, group: systemic.
Series [2] relates to mouse. To be noted: Subchronic oral toxicity in rodents, cd1, Feed, dose end: 13 week, group: systemic.
For series [3], the system named is rat. The note with it: Combined chronic toxicity/carcinogenicity; fischer; Oral; Feed; dose end: 104 week; group: systemic; systemic / pathology microscopic / kidney / hemosiderosis.
Series [4] has as its system dog. To be noted: Subchronic oral toxicity in nonrodent, beagle, Feed, dose end: 13 week, group: systemic.
Series [5] relates to dog. To be noted: Chronic toxicity, beagle, Oral, Feed, dose end: 12 month, group: systemic.
For series [6], the system named is mouse. The note with it: Subchronic oral toxicity in rodents, cd1, Feed, dose end: 13 week, group: systemic. This is another data set of the same source.
The subject of series [7] is rat. To be noted: Subchronic oral toxicity in rodents, fischer, Feed, dose end: 13 week, group: systemic.
Series [8] concerns rat. The note with it: Subchronic oral toxicity in rodents, sprague dawley, Feed, dose end: 90 day, group: systemic.
For series [9], the system named is rat. The note with it: Subchronic inhalation toxicity, wistar, Whole-Body, dose end: 13 week, group: systemic.
In series [10] the test system is rat. To be noted: Subchronic inhalation toxicity, wistar, Whole-Body, dose end: 13 week, group: systemic, systemic / clinical chemistry / alanine aminotransferase (alt/sgpt) / alanine aminotransferase (alt/sgpt) + systemic / clinical chemistry / ….
Series [11] relates to rat. The note with it: Subchronic inhalation toxicity, wistar, Whole-Body, dose end: 13 week, group: systemic, systemic / pathology microscopic / lung / alveolar macrophages + systemic / in life observation / body weight / body weight.
The subject of series [12] is rat. The note with it: Subchronic inhalation toxicity, wistar, Whole-Body, dose end: 13 week, group: systemic, systemic / pathology microscopic / lung / alveolar macrophages + systemic / pathology microscopic / lung / fibrosis + systemic / pathology ….
The mark [13] stands for this setting: systemic / organ weight / kidney / absolute + systemic / organ weight / liver / absolute + systemic / organ weight / liver / relative to ….
Setting [14] is: systemic / clinical chemistry / potassium / potassium.
[15] abbreviates: systemic / organ weight / thymus / absolute + systemic / organ weight / thymus / relative to body weight + systemic / pathology gross / ….
[16] abbreviates: systemic / pathology gross / gallbladder / [other] + systemic / pathology gross / gallbladder / distended + systemic / pathology microscopic….
Where [17] appears, read: systemic / organ weight / kidney / absolute + systemic / organ weight / kidney / relative to body weight + systemic / pathology microscopic….
Setting [18] is: systemic / clinical chemistry / albumin / albumin.
The mark [19] stands for this setting: systemic / in life observation / body weight / body weight + systemic / in life observation / body weight / body weight gain + systemic / in….
Where [20] appears, read: systemic / pathology microscopic / lung / alveolar macrophages + systemic / pathology microscopic / lung / cholesterol cleft(s) + systemic….

With `CCCCOC(=O)[C@@H](C)Oc1ccc(Oc2ccc(C#N)cc2F)cc1` [Cyhalofop-butyl], the LEL with mouse [1] (systemic / organ weight / liver / absolute) was found to be 3.6 mg/kg/day; in the series with mouse [2] (systemic / pathology gross / liver / foci), 3 mg/kg/day; in the series on rat [3] it was 3.44 mg/kg/day; with dog [4] (setting [14]) it was 3.17 mg/kg/day; with dog [5] (systemic / in life observation / body weight / body weight + systemic / in life observation / body weight / body weight gain), 7.59 mg/kg/day; with mouse [6] (systemic / organ weight / liver / relative to body weight), 3 mg/kg/day. For the same compound, the values for the LEL in the series with rat [7] (setting [18]) and in the series on rat [8] (systemic / organ weight / liver / absolute + systemic / organ weight / liver / relative to body weight + systemic / pathology gross / liver…) were 1.72 mg/kg/day and 25 mg/kg/day, respectively. The NEL with mouse [1] (systemic / organ weight / liver / absolute + systemic / in life observation / clinical signs / alopecia + systemic / organ weight / liver / …) is 0.4 mg/kg/day; in the series with mouse [2] (systemic / pathology gross / liver / foci + systemic / clinical chemistry / alkaline phosphatase (alp/alk) / alkaline phosphatase (alp/alk…), 1 mg/kg/day; in the series with rat [3], 0.823 mg/kg/day; in the series with dog [4] (setting [14]), below 3.17 mg/kg/day; in the series with dog [5] (systemic / in life observation / body weight / body weight + systemic / in life observation / body weight / body weight gain + systemic / …), 1.22 mg/kg/day; in the series on mouse [6] (systemic / pathology microscopic / liver / inflammation + systemic / pathology microscopic / liver / necrosis + systemic / organ weight / …), 1 mg/kg/day. The compound further displayed an NEL in the series with rat [7] (setting [18]) below 1.72 mg/kg/day. Further, the LOAEL is 14.1 mg/kg/day in the series with mouse [1] (systemic / pathology gross / kidney / enlarged + systemic / pathology microscopic / kidney / hypertrophy); above 350 mg/kg/day with mouse [2] (setting [13]); 3.44 mg/kg/day in the series on rat [3]; 75.2 mg/kg/day with dog [4] (setting [15]); above 45.9 mg/kg/day in the series on dog [5] (setting [16]); 30 mg/kg/day with mouse [6] (setting [17]). The LOAEL amounted to 190 mg/kg/day with rat [7] (systemic / pathology microscopic / kidney / [other] + systemic / pathology microscopic / kidney / pigmentation + systemic / pathology …) and 800 mg/kg/day with rat [8] (setting [19]). Also, the NOAEL is 4.3 mg/kg/day in the series with mouse [1] (systemic / pathology gross / kidney / enlarged + systemic / pathology microscopic / kidney / hypertrophy + systemic / organ weight / kidney…); at least 350 mg/kg/day with mouse [2] (setting [13]); 0.823 mg/kg/day in the series on rat [3]; 14.7 mg/kg/day with dog [4] (setting [15]); at least 45.9 mg/kg/day with dog [5] (setting [16]); 10 mg/kg/day with mouse [6] (setting [17]). Besides, the figures for the no-observed-adverse-effect level (NOAEL) with rat [7] (systemic / clinical chemistry / albumin / albumin + systemic / pathology microscopic / kidney / [other] + systemic / pathology microscopic…) and in the series with rat [8] (setting [19]) were 60.5 mg/kg/day and 400 mg/kg/day, respectively.

In the case of `O=[Si]=O` [Silica], the LOAEL in the series with rat [9] (setting [20]) is above 0.03 ppm; with rat [10] it was above 0.06 ppm; in the series on rat [11] it was above 0.03 ppm; in the series on rat [12], above 0.03 ppm. Further, the no-observed-adverse-effect level (NOAEL) in the series with rat [9] (setting [20]) was at least 0.03 ppm; with rat [10], at least 0.06 ppm; in the series with rat [11], at least 0.03 ppm; in the series on rat [12] it was at least 0.03 ppm. Further, the LEL was 0.001 ppm in the series on rat [9] (systemic / pathology microscopic / lung / proliferation), 0.06 ppm in the series with rat [10], 0.03 ppm in the series with rat [11] and 0.03 ppm with rat [12]. Moreover, the NEL with rat [10] is below 0.06 ppm; in the series with rat [11], below 0.03 ppm; in the series on rat [12], below 0.03 ppm.
